Reference: PMC9501633, “Synthesis, Characterisation and Mechanism of Action of Anticancer 3-Fluoroazetidin-2-ones” (Pharmaceuticals, 2022)

Experiments:
[1] = Stability in phosphate buffers (HPLC); format: physicochemical
Procedure: The β-lactam ring is known to undergo hydrolysis/degradation depending on the substituent type on the ring. For example, degradation of monocyclic β-lactam antibiotic aztreonam increased with elevated humidity, temperature and acidic pH buffer. Ezetimibe, a monocyclic β-lactam drug used to reduce blood cholesterol, undergoes degradation and hydrolysis more rapidly in neutral and basic pH conditions than in acidic pH [71]. The stability of representative compounds 33 and 39 was also determined at pH 4, pH 7.4 (plasma) and pH 9 (intestine) by HPLC. […] The electron-withdrawing effect of the 3-fluoro substituent may result in decreasing stability of the β-lactam ring in response to acid hydrolysis.
The stability study for compounds 33 and 39 was performed using analytical HPLC (Symmetry column (C18, […], 4.6 × 150 mm), dual wavelength absorbance detector (Waters 2487), binary HPLC pump (Waters 1525) and autosampler (Waters 717 plus)) with mobile phase acetonitrile (70%)/water (30%), flow rate 1 mL/min over 15 min and detection at λ 254 nm. Stock solutions of compounds 33 and 39 (1 mg/mL in mobile phase) were used. Dilutions of 0.5 mg/mL, 0.25 mg/mL, 0.125 mg/mL, 0.0625 mg/mL, 0.03125 mg/mL, 0.015625 mg/mL and 0.0078 mg/mL were prepared for the calibration curve. (i) Stability of 33 and 39 in phosphate buffers: The phosphate buffers were prepared in accordance with the British Pharmacopoeia 2020 at pH values 4, 7.4 and 9. Stock solution, 300 µL (1 mg/mL ACN), was added to a vial containing buffer (9.7 mL), mixed and pre-heated to 37 °C. 1 mL of the solution was introduced into an HPLC vial. Samples (10 µL) were injected and analysed at time intervals of t = 0 min, 5 min, 30 min, 60 min and hourly for 24 h. The analysis was performed in triplicate. (ii) Thermal stability: Compounds 33 and 39 (1 mL stock solution) were each placed in a vial for 4 h at 60 °C on a heating block. The sample was then cooled, diluted with acetonitrile and analysed by HPLC. (iii) Photostability study: Compounds 33 and 39 (stock solution, 1 mL) were placed in a vial, exposed to UV light for 4 h and then analysed by HPLC. (iv) Stability in acidic conditions: HCl (0.1 M, 0.2 mL) was added to stock solutions (0.8 mL) of 33 and 39 in a vial. The vial was vortexed and retained at room temperature. A sample was neutralised with NaOH (0.1 M, 0.2 mL) each hour for 4 h and then analysed by HPLC. (v) Stability of 33 and 39 in basic (alkaline) conditions: NaOH (0.1 M, 0.2 mL) was added to stock solution (0.8 mL) in a vial. The vial was vortexed and retained at room temperature. A sample was neutralised with HCl (0.1 M, 0.2 mL) every hour for 4 h then analysed by HPLC. (vi) Stability of 33 and 39 in oxidising conditions: H2O2 (3%, 0.2 mL) was added to the stock solution (0.8 mL). The vial was vortexed to obtain a homogeneous mixture and retained at room temperature, and a sample was analysed by HPLC every hour for 4 h.

[2] = AlamarBlue cell viability assay, non-tumourigenic cells; format: cell-based, human; settings: human, HEK-293T cells (non-tumourigenic), 1 μM
Procedure: (§1) The cytotoxicity of the potent β-lactam 33 was investigated in the non-tumourigenic HEK-293T cell line (normal human embryonic kidney) at 72 h. […] For example, the cell viability of HEK cells at 1 μM was 88% in contrast to the cell viability of 36% for MCF-7 cells at 1 μM.
(§2) Cells were seeded at a density of 5 × 10^3 cells/well (MCF-7 and MDA-MB-231) and 1 × 10^4 cells/well (HEK-293T) in 96-well plates (200 μL per well). After 24 h, cells were then treated with medium alone, with vehicle (1% ethanol (v/v)) or with CA-4 or β-lactam compounds at 1 μM and 10 μM concentrations. […] Cell proliferation for MCF-7 cells was analysed with the AlamarBlue assay (Invitrogen Corp.) as previously described by us. […] Fluorescence results were obtained with a 96-well fluorimeter with excitation at 530 nm and emission at 590 nm with results recorded as percentage viability relative to vehicle control (100%). […]
(§3) Figure 4 Antiproliferative activity of 3-fluoro β-lactams on MCF-7, MDA-MB-231, Hs578T and Hs578T isogenic subclone Hs578T(i)8 breast cancer cells and non-tumourigenic HEK-293T cells. […] Cell viability was expressed as a percentage of vehicle control (ethanol 1% (v/v))-treated cells. […] Cell viability was expressed as a percentage of vehicle control (ethanol 1% (v/v))-treated cells and was measured by AlamarBlue assay (average of three independent experiments). […]

[3] = system: HEK-293T cells; assay: as above; format: cell-based, human; settings: Homo sapiens, 72 h
Procedure: as §1, §2, §3

COc1ccc(C2C(F)C(=O)N2c2cc(OC)c(OC)c(OC)c2)cc1F (stereo not drawn) [Compound 33, 3-Fluoro-4-(3-fluoro-4-methoxyphenyl)-1-(3,4,5-trimethoxyphenyl)azetidin-2-one]
remaining at 24 h, 0.03 mg/mL ([1]; phosphate buffer pH 4, 37 °C): 76%
remaining at 24 h, 0.03 mg/mL ([1]; phosphate buffer pH 7.4, 37 °C): 87%
remaining at 24 h, 0.03 mg/mL ([1]; phosphate buffer pH 9, 37 °C): 26%
remaining at 0.03 mg/mL ([1]; phosphate buffer, pH 11 (as printed in Table S7)): 26%
viability at 72 h, 1 µM [2]: 88%
IC50 [3]: > 50 µM
